Tested on: human patient with an ectopic ACTH-secreting pancreatic neuroendocrine tumor
Test: Tolerability in a patient
Assay type: in vivo
Settings: week 20, octreotide LAR continued
Text: Mifepristone was resumed for an additional 12-month extension period. […] The collection of cortisol and ACTH data was less frequent during the extension study.

Structure (SMILES): CC#C[C@]1(O)CC[C@H]2[C@@H]3CCC4=CC(=O)CCC4=C3[C@@H](c3ccc(N(C)C)cc3)C[C@@]21C [mifepristone, 17-β-hydrox-11-β-(4-dimethyl-aminophenyl)17-α-(1-propynyl)estra-4,9-dien-3-one]
- adverse events for which the drug was briefly stopped: significant fatigue, low appetite, and nausea

From patent US20180125856A1, “USE OF GLUCOCORTICOID RECEPTOR ANTAGONIST AND SOMATOSTATIN ANALOGUES TO TREAT ACTH-SECRETING TUMORS” (Corcept Therapeutics, Inc., priority 2015, published 2018)
